Measured values from patent US20260232767A1, “INTERLEUKIN-23 RECEPTOR ANTAGONIST PEPTIDES FOR USE IN THE TREATMENT OF PSORIASIS” (Janssen Pharmaceutica NV, priority 2023, published 2026).

Tested on: subjects with moderate-to-severe plaque psoriasis
Assay: Safety, adverse events, Example 2 through Week 56
Format: in vivo, human
Conditions: 100 mg BID
Text: The LTE safety analysis was based on randomized participants in Example who entered the present long-term extension study and received at least one dose of study intervention (including a partial dose) during the study period.

CC(=O)NCCCC[C@@H]1NC(=O)[C@H](Cc2c[nH]c3c(C)cccc23)NC(=O)[C@H]([C@@H](C)O)NC(=O)[C@H](CC(N)=O)NC(=O)[C@@H](NC(C)=O)C(C)(C)SSC(C)(C)[C@@H](C(=O)N[C@@H](Cc2ccc(OCCN)cc2)C(=O)N[C@@H](Cc2ccc3ccccc3c2)C(=O)NC2(C(=O)N[C@@H](CCC(=O)O)C(=O)N[C@@H](CC(N)=O)C(=O)N[C@@H](Cc3cccnc3)C(=O)N(C)CC(N)=O)CCOCC2)NC1=O [IL-23 receptor antagonist peptide, Ac-[Pen]*-N-T-[W(7-Me)]-[Lys(Ac)]-[Pen]*-Phe[4-(2-aminoethoxy)]-[2-Nal]-[THP]-E-N-[3-Pal]-Sarc-NH2 (*[Pen]-[Pen]* formdisulfidebond)]
Subjects with treatment-emergent AE: Headache (Week 16-56): 0
Subjects with treatment-emergent AE: Investigations (Week 16-56): 4
Subjects with treatment-emergent AE: Meniscus injury (Week 16-56): 0
Subjects with treatment-emergent AE: Sinusitis (Week 16-56): 0
Subjects with treatment-emergent AE: Vomiting (Week 16-56): 0
Subjects with treatment-emergent serious AE: Cardiac disorders (Week 16-56): 0
Subjects with treatment-emergent serious AE: Cerebrovascular accident (Week 16-56): 0
Subjects with treatment-emergent serious AE: Coronary artery disease (Week 16-56): 0
Subjects with treatment-emergent serious AE: Diverticulitis (Week 16-56): 0
Subjects with treatment-emergent serious AE: Foot deformity (Week 16-56): 0
Subjects with treatment-emergent serious AE: General disorders and administration site conditions (Week 16-56): 0
Subjects with treatment-emergent serious AE: Infections and infestations (Week 16-56): 0
Subjects with treatment-emergent serious AE: Injury, poisoning and procedural complications (Week 16-56): 0
Subjects with treatment-emergent serious AE: Intervertebral disc protrusion (Week 16-56): 0
Subjects with treatment-emergent serious AE: Ligament injury (Week 16-56): 0
Subjects with treatment-emergent serious AE: Musculoskeletal and connective tissue disorders (Week 16-56): 0
Subjects with treatment-emergent serious AE: Nervous system disorders (Week 16-56): 0
Subjects with treatment-emergent serious AE: Non-cardiac chest pain (Week 16-56): 0
Subjects with treatment-emergent serious AE: Respiratory, thoracic and mediastinal disorders (Week 16-56): 0
Subjects with treatment-emergent serious AE: Tonsillar hypertrophy (Week 16-56): 0
Subjects with treatment-emergent serious AE: Ventricular dysfunction (Week 16-56): 0
Acrochordon: number of subjects (through Week 56): 0
Actinic keratosis: number of subjects (through Week 56): 0
Alopecia: number of subjects (through Week 56): 0
Asthenia: number of subjects (through Week 56): 0
Asthma: number of subjects (through Week 56): 0
Atrioventricular block first degree: number of subjects (through Week 56): 0
Basal cell carcinoma: number of subjects (through Week 56): 0
Blood and lymphatic system disorders: % of subjects (through Week 56): (2.4%)
Blood and lymphatic system disorders: number of subjects (through Week 56): 1
Bronchitis chronic: number of subjects (through Week 56): 0
Bundle branch block right: % of subjects (through Week 56): (2.4%)
Bundle branch block right: number of subjects (through Week 56): 1
Cardiac disorders: % of subjects (through Week 56): (2.4%)
Cardiac disorders: number of subjects (through Week 56): 1
Chills: number of subjects (through Week 56): 0
Cholelithiasis: number of subjects (through Week 56): 0
Chronic obstructive pulmonary disease: number of subjects (through Week 56): 0
Coronary artery disease: number of subjects (through Week 56): 0
Cough: % of subjects (through Week 56): (4.8%)
Cough: number of subjects (through Week 56): 2
Decreased appetite: number of subjects (through Week 56): 0
Depression: % of subjects (through Week 56): (2.4%)
Depression: number of subjects (through Week 56): 1
Dermal cyst: number of subjects (through Week 56): 0
Dermatitis acneiform: number of subjects (through Week 56): 0
Dermatitis contact: % of subjects (through Week 56): (2.4%)
Dermatitis contact: number of subjects (through Week 56): 1
Diabetes mellitus: number of subjects (through Week 56): 0
Diffuse alopecia: number of subjects (through Week 56): 0
Dysuria: number of subjects (through Week 56): 0
Ear and labyrinth disorders: % of subjects (through Week 56): (2.4%)
Ear and labyrinth disorders: number of subjects (through Week 56): 1
Endocrine disorders: number of subjects (through Week 56): 0
Eye disorders: number of subjects (through Week 56): 0
Eyelid skin dryness: number of subjects (through Week 56): 0
Fatigue: % of subjects (through Week 56): (4.8%)
Fatigue: number of subjects (through Week 56): 2
General disorders and administration site conditions: % of subjects (through Week 56): (9.5%)
General disorders and administration site conditions: number of subjects (through Week 56): 4
Goiter: number of subjects (through Week 56): 0
Haemochromatosis: number of subjects (through Week 56): 0
Hand dermatitis: number of subjects (through Week 56): 0
Hematuria: number of subjects (through Week 56): 0
Hepatobiliary disorders: number of subjects (through Week 56): 0
Hypercholesterolemia: number of subjects (through Week 56): 0
Hyperglycemia: % of subjects (through Week 56): (4.8%)
Hyperglycemia: number of subjects (through Week 56): 2
Hyperlipidemia: number of subjects (through Week 56): 0
Hypertension: % of subjects (through Week 56): (4.8%)
Hypertension: number of subjects (through Week 56): 2
Hypertransaminasemia: number of subjects (through Week 56): 0
Hypertriglyceridemia: number of subjects (through Week 56): 0
Hypoacusis: % of subjects (through Week 56): (2.4%)
Hypoacusis: number of subjects (through Week 56): 1
Immune system disorders: % of subjects (through Week 56): (2.4%)
Immune system disorders: number of subjects (through Week 56): 1
Influenza like illness: number of subjects (through Week 56): 0
Insomnia: number of subjects (through Week 56): 0
Intertrigo: % of subjects (through Week 56): (2.4%)
Intertrigo: number of subjects (through Week 56): 1
Ketonuria: % of subjects (through Week 56): (2.4%)
Ketonuria: number of subjects (through Week 56): 1
Leukocyturia: number of subjects (through Week 56): 0
Leukopenia: number of subjects (through Week 56): 0
Libido decreased: number of subjects (through Week 56): 0
Liver disorder: number of subjects (through Week 56): 0
Lymphopenia: number of subjects (through Week 56): 0
Menopause: number of subjects (through Week 56): 0
Metabolism and nutrition disorders: % of subjects (through Week 56): (4.8%)
Metabolism and nutrition disorders: number of subjects (through Week 56): 2
Neoplasms benign, malignant and unspecified (incl cysts and polyps): % of subjects (through Week 56): (4.8%)
Neoplasms benign, malignant and unspecified (incl cysts and polyps): number of subjects (through Week 56): 2
Nephrolithiasis: number of subjects (through Week 56): 0
Neutropenia: number of subjects (through Week 56): 0
Night sweats: number of subjects (through Week 56): 0
Non-cardiac chest pain: number of subjects (through Week 56): 0
Ocular cyst: number of subjects (through Week 56): 0
Oedema peripheral: % of subjects (through Week 56): (4.8%)
Oedema peripheral: number of subjects (through Week 56): 2
Oropharyngeal pain: number of subjects (through Week 56): 0
Procedural pain: % of subjects (through Week 56): (2.4%)
Procedural pain: number of subjects (through Week 56): 1
Productive cough: % of subjects (through Week 56): (2.4%)
Productive cough: number of subjects (through Week 56): 1
Proteinuria: % of subjects (through Week 56): (2.4%)
Proteinuria: number of subjects (through Week 56): 1
Pruritus: number of subjects (through Week 56): 0
Psoriasis: % of subjects (through Week 56): (4.8%)
Psoriasis: number of subjects (through Week 56): 2
Psychiatric disorders: % of subjects (through Week 56): (2.4%)
Psychiatric disorders: number of subjects (through Week 56): 1
Pyrexia: % of subjects (through Week 56): (2.4%)
Pyrexia: number of subjects (through Week 56): 1
Rash pruritic: number of subjects (through Week 56): 0
Renal and urinary disorders: % of subjects (through Week 56): (4.8%)
Renal and urinary disorders: number of subjects (through Week 56): 2
Renal mass: number of subjects (through Week 56): 0
Respiratory, thoracic and mediastinal disorders: % of subjects (through Week 56): (9.5%)
Respiratory, thoracic and mediastinal disorders: number of subjects (through Week 56): 4
Retinal vein occlusion: number of subjects (through Week 56): 0
